The values below come from patent US10722597B2, “Cyclodextrin-panobinostat adduct” (MIDATECH LTD., priority 2016, dated 2020).

Data set [1] deals with HEPG2 (Hepatocellular carcinoma) cell line. Kind of data set: MTT cell viability (cytotoxicity). The data set is classed as cell-based. Particulars: HEPG2, 48 or 72 hrs exposure. As for the experimental part:
(§1) Error bars indicate plus or minus standard deviation of triplicate samples. N=1 experimental replicate.
(§2) Cell viability was then assessed using MTT reagent.

Data set [2] deals with U87MG (Glioblastoma) cell line. The data set is described as follows: MTT cell viability (cytotoxicity). It counts as cell-based. Particulars: 48 or 72 hrs exposure. As to the method: as §1, §2
Data set [3] can be described thus: Solubility of panobinostat free base in aqueous media. It counts as physicochemical. As to the method: The pH of the first aqueous solution is in the range 2.0 to 4.0, for example 2.5 to 3.5. Preferably, the pH of the first aqueous solution is about 3.0.
It is similarly insoluble in concentrated aqueous solutions of 2-hydroxypropyl-β-cyclodextrin (HP-β-CD) (450 mg/ml).

The nature of data set [4]: HPLC stability of 10 mM panobinostat stock solutions at room temperature. It counts as physicochemical. As to the method: Samples were diluted to allow analysis by HPLC (to avoid overloading the system). Peak areas were measured for both solutions at time 0, 100 h and 150 h post preparation. Samples were stored at room temperature over the course of the analysis. Percentage change was calculated based on the peak area and compared to analysis at time zero. One replicate was analysed and 7.2 μl was injected (equivalent to 0.25 μg on column) for each sample. The concentration of the stock solutions assessed was 10 mM. Column: Ascentis Express Peptide, ES-C18, 10 cm×4.6 mm Mobile phases: 0.1% trifluoroacetic acid (TFA) in acetonitrile (organic) and 0.1% trifluoroacetic acid in water HPLC: Agilent 1260 infinity HPLC conditions used: […]

On to 2-hydroxypropyl-β-cyclodextrin, for which the “Toxicity (cell viability, MTT)” value in data set [1] and in data set [2] was “essentially non-toxic” each time.
For the compound `Cc1[nH]c2ccccc2c1CCNCc1ccc(/C=C/C(=O)NO)cc1` [Panobinostat, 2-(E)-N-hydroxy-3-[4[[[2-(2-methyl-1H-indol-3-yl)ethyl]amino]methyl]phenyl]-2-propenamide], in data set [3] (aqueous buffer, thermodynamic from solid, free base, citrate buffer at pH 3.0, read-out: Soluble concentration in citrate buffer), the solubility is at least 10 mM. Moreover, in data set [3] (citrate buffer at pH 3.0), the “Solubility in citrate buffer” value was “soluble”. For the same compound, in data set [3] (free base, HP-β-CD 450 mg/ml), the “Solubility in concentrated aqueous 2-hydroxypropyl-β-cyclodextrin” value is reported as “insoluble”. In addition, the Solubility in water result in data set [3] (free base, water) is given as “poorly soluble”. Further, the “Decrease of Panobinostat concentration” value turned out to be 2.8% in data set [4] (DMSO solution, 100 hrs); 4.4% in data set [4] (DMSO solution, 150 hrs); 0.4% in data set [4] (citrate solution, 100 hrs); 1% in data set [4] (citrate solution, 150 hrs).
